Results on 13 compounds are retold here after article PMC8397297 (ACS Chemical Neuroscience, 2021).

One test concerns the target T1, mGAT2 (Mus musculus, UniProt P31651).
T1 construct: expressed in transfected cells; host or cells: HEK-293
T1 sequence (P31651 1-614): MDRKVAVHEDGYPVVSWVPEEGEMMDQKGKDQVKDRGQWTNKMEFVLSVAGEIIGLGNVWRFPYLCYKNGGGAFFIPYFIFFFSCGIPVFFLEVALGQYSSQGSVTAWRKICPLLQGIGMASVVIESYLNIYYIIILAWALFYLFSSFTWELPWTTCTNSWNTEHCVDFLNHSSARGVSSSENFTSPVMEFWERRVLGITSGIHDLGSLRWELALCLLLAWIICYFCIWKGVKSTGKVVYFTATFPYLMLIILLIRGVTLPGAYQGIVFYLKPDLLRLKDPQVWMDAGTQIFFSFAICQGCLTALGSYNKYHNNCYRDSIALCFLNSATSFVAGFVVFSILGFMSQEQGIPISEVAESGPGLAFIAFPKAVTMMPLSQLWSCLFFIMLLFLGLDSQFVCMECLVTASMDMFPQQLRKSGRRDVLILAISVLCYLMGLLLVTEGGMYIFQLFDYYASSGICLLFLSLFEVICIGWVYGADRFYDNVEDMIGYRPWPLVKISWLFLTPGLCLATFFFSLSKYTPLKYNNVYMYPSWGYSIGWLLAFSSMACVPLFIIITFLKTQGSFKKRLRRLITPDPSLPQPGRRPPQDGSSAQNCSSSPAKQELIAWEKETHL
Nature of the test: [3H]GABA uptake assay in HEK-293 cells stably expressing mGAT2. The format is cell-based. As to conditions: for remaining [3H]GABA uptake mGAT2: in the presence of 100 μM inhibitor; for IC50: [3H]GABA uptake, read-out: pIC50 ± SEM mGAT2 (converted).

The next test concerns the target T2, mGAT3 (Mus musculus, UniProt P31649).
T2 construct: expressed in transfected cells; host or cells: HEK-293
T2 sequence (P31649 1-602): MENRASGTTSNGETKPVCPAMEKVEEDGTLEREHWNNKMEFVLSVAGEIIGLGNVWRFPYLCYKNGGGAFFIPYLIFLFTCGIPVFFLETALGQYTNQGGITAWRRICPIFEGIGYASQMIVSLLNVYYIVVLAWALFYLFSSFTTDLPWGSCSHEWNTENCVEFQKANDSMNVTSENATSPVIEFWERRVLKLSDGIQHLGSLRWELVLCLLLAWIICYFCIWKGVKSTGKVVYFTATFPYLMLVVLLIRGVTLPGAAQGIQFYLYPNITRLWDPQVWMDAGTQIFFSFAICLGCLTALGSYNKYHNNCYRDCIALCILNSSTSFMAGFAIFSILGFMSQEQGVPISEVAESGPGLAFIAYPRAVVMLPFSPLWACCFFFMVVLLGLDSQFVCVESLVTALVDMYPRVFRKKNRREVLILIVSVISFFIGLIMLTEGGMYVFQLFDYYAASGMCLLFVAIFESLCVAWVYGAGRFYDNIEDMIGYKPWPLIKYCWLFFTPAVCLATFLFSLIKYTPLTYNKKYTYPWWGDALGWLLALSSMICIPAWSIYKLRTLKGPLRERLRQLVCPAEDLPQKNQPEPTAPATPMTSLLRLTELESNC
Nature of the test: [3H]GABA uptake assay in HEK-293 cells stably expressing mGAT3. The conditions noted are these: for IC50: [3H]GABA uptake, read-out: pIC50 ± SEM mGAT3 (converted). The format is cell-based.

In test [1] the target is T3, mGAT1 (Mus musculus, UniProt P31648).
T3 construct: expressed in transfected cells; host or cells: HEK-293
Put plainly: [3H]GABA uptake assay in HEK-293 cells stably expressing mGAT1. Format: cell-based. The conditions noted are these: for remaining [3H]GABA uptake mGAT1: in the presence of 100 μM inhibitor; for IC50: [3H]GABA uptake, read-out: pIC50 ± SEM mGAT1 (converted).

Test [2] addresses T3, mGAT1. Put plainly: competitive MS binding assay with NO711 as unlabeled marker (LC-ESI-MS/MS). As to conditions: for remaining NO711 binding mGAT1: in the presence of 100 μM inhibitor. How it is done: Specific binding affinity toward mGAT1 was determined via a competitive mass spectrometry (MS) binding assay quantified by liquid chromatography–electrospray ionization tandem mass spectrometry (LC–ESI-MS/MS) with NO711 as an unlabeled marker.[50]
MS binding assays for mGAT1 were performed as described earlier.[50] Inhibition of mGAT1 binding by the synthesized compounds was determined in MS binding assays at a screening concentration of 100 μM and analyzed by LC–ESI-MS/MS.

A further test concerns the target T4, mGAT4 (Mus musculus, UniProt P31650).
T4 construct: expressed in transfected cells; host or cells: HEK-293
T4 sequence (P31650 1-627): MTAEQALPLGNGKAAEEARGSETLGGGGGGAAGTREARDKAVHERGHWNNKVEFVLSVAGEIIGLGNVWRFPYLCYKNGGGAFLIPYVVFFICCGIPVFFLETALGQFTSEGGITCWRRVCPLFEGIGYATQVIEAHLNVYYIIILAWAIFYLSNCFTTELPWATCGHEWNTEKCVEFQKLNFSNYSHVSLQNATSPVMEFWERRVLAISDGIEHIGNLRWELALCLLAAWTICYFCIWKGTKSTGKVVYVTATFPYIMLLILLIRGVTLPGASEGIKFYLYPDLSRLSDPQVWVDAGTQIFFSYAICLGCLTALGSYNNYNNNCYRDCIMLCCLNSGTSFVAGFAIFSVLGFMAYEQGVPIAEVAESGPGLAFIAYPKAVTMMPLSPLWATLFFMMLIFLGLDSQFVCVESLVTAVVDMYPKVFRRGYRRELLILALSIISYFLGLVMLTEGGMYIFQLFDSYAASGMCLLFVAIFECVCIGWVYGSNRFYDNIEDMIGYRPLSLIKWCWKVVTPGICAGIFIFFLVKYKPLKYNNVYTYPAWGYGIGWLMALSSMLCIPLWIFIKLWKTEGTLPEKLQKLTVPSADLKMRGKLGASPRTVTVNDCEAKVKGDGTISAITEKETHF
Nature of the test: [3H]GABA uptake assay in HEK-293 cells stably expressing mGAT4. The conditions noted are these: for remaining [3H]GABA uptake mGAT4: in the presence of 100 μM inhibitor; for IC50: [3H]GABA uptake, read-out: pIC50 ± SEM mGAT4 (converted). Format: cell-based.

With `Cc1ccsc1C(=C1CCN(C(CC(C)O)C(=O)NCc2ccccc2Cl)CC1)c1sccc1C` (centres unmarked) [2RS,4SR-37b, 2-{4-[Bis(3-methylthiophen-2-yl)methylidene]piperidin-1-yl}-N-[(2-chlorophenyl)methyl]-4-hydroxypentanamide], on mGAT2, the “remaining [3H]GABA uptake mGAT2” value is 100 μM: 69%. For the same compound, the IC50 on mGAT3 was 72.4 µM. For the same compound, the “remaining [3H]GABA uptake mGAT1” value at mGAT1 [1] was 100 μM: 50%. Besides, the “remaining NO711 binding mGAT1” value at mGAT1 [2] is recorded as 100 μM: 108%. For the same compound, the “remaining [3H]GABA uptake mGAT4” value on mGAT4 is 100 μM: 56%.

Regarding `CC(O)CC(C(=O)NCc1ccccc1)N1CCC(=C2c3ccccc3-c3ccccc32)CC1` (centres unmarked) [2RS,4SR-41a, N-Benzyl-2-[4-(9H-fluoren-9-ylidene)piperidin-1-yl]-4-hydroxypentanamide], the IC50 was 89.1 µM at mGAT2, 55 µM at mGAT3, 85.1 µM at mGAT1 [1] and 72.4 µM on mGAT4. Besides, at mGAT1 [2], the “remaining NO711 binding mGAT1” value is listed as 100 μM: 89%.

Regarding `CC(O)CC(C(=O)NCc1ccccc1)N1CCC(=C2c3ccccc3CCc3ccccc32)CC1` (centres unmarked) [2RS,4SR-43a, N-Benzyl-2-(4-(10,11-dihydro-5H-dibenzo[a,d][7]annulen-5-ylidene)piperidin-1-yl)-4-hydroxypentanamide], the IC50 was 58.9 µM at mGAT2, 28.2 µM at mGAT3, 19.5 µM at mGAT1 [1] and 15.8 µM on mGAT4. Also, the “remaining NO711 binding mGAT1” value at mGAT1 [2] is reported as 100 μM: 73%.

For the compound `CC(O)CC(C(=O)NCc1ccc(F)cc1)N1CCC(=C2c3ccccc3CCc3ccccc32)CC1` (centres unmarked) [2RS,4SR-43b, 2-(4-(10,11-Dihydro-5H-dibenzo[a,d][7]annulen-5-ylidene)piperidin-1-yl)-N-(4-fluorobenzyl)-4-hydroxypentanamide], the “remaining [3H]GABA uptake mGAT2” value on mGAT2 is reported as 100 μM: 80%. In addition, the “remaining [3H]GABA uptake mGAT3” value on mGAT3 (in the presence of 100 μM inhibitor) is reported as 100 μM: 87%. Moreover, the “remaining [3H]GABA uptake mGAT1” value on mGAT1 [1] is reported as 100 μM: 54%. On mGAT1 [2], the “remaining NO711 binding mGAT1” value is listed as 100 μM: 102%. Moreover, the “remaining [3H]GABA uptake mGAT4” value on mGAT4 is 100 μM: 62%.

For `CC(O)CC(C(=O)NCc1ccccc1)N(C)CCON=C(c1ccccc1)c1ccccc1` (centres unmarked) [2RS,4SR-45, N-Benzyl-2-[(2-{[(diphenylmethylidene)amino]oxy}ethyl)(methyl)amino]-4-hydroxypentanamide], the IC50 is 31.6 µM at mGAT2, 18.2 µM on mGAT3, 57.5 µM at mGAT1 [1] and 39.8 µM on mGAT4. Moreover, on mGAT1 [2], the “remaining NO711 binding mGAT1” value was 100 μM: 86%.

As to `CN(CCON=C(c1ccccc1)c1ccccc1)C(CCO)C(=O)NCc1ccccc1` (centres unmarked) [Compound 47a, N-Benzyl-2-[(2-{[(diphenylmethylidene)amino]oxy}ethyl)(methyl)amino]-4-hydroxybutanamide], the IC50 at mGAT2 was 36.3 µM; on mGAT3, 18.2 µM; on mGAT1 [1], 16.6 µM; on mGAT4, 14.8 µM. Also, the “remaining NO711 binding mGAT1” value on mGAT1 [2] is 100 μM: 87%.

Regarding `CN(CCON=C(c1ccccc1)c1ccccc1)C(CCO)C(=O)NCc1ccccc1Cl` (centres unmarked) [Compound 47b, N-[(2-Chlorophenyl)methyl]-2-[(2-{[(diphenylmethylidene)amino]oxy}ethyl)(methyl)amino]-4-hydroxybutanamide], the IC50 is 13.8 µM at mGAT2, 9.12 µM at mGAT3, 31.6 µM on mGAT1 [1] and 18.6 µM at mGAT4. Besides, the “remaining NO711 binding mGAT1” value on mGAT1 [2] is 100 μM: 86%.

`CN(CCON=C(c1ccccc1)c1ccccc1)C(CCO)C(=O)NCc1ccc(Cl)c(Cl)c1` (centres unmarked) [Compound 47c, N-[(3,4-Dichlorophenyl)methyl]-2-[(2-{[(diphenylmethylidene)amino]oxy}ethyl)(methyl)amino]-4-hydroxybutanamide]: the IC50 at mGAT2 was 10.2 µM; at mGAT3, 11 µM; on mGAT1 [1], 21.9 µM; on mGAT4, 7.08 µM. Moreover, the “remaining NO711 binding mGAT1” value at mGAT1 [2] was 100 μM: 82%.

For the compound `CN(CCON=C(c1ccccc1)c1ccccc1)C(CCN)C(=O)NCc1ccc(Cl)c(Cl)c1` (centres unmarked) [Compound 50b, 4-Amino-N-[(3,4-dichlorophenyl)methyl]-2-[(2-{[(diphenylmethylidene)amino]oxy}ethyl)(methyl)amino]butanamide], the IC50 was 4.9 µM on mGAT2, 4.79 µM at mGAT3, 12.3 µM at mGAT1 [1] and 4.9 µM on mGAT4. The Ki on mGAT1 [2] (MS binding assay, read-out: pKi ± SEM mGAT1 (converted)) was 33.1 µM.

With `CC(=O)NCCC(C(=O)NCc1ccccc1Cl)N(C)CCON=C(c1ccccc1)c1ccccc1` (centres unmarked) [Compound 51a, N-[(2-Chlorophenyl)methyl]-2-[(2-{[(diphenylmethylidene)amino]oxy}ethyl)(methyl)amino]-4-acetamidobutanamide], the IC50 at mGAT2 was 13.2 µM; on mGAT3, 9.33 µM; on mGAT1 [1], 18.2 µM; at mGAT4, 12.6 µM. The “remaining NO711 binding mGAT1” value on mGAT1 [2] is reported as 100 μM: 74%.

Consider `CC(=O)NCCC(C(=O)NCc1ccc(Cl)c(Cl)c1)N(C)CCON=C(c1ccccc1)c1ccccc1` (centres unmarked) [Compound 51b, N-[(3,4-Dichlorophenyl)methyl]-2-[(2-{[(diphenylmethylidene)amino]oxy}ethyl)(methyl)amino]-4-acetamidobutanamide], for which the IC50 is 12 µM at mGAT2, 6.76 µM at mGAT3, 11.7 µM on mGAT1 [1] and 11.2 µM on mGAT4. Moreover, the “remaining NO711 binding mGAT1” value at mGAT1 [2] was 100 μM: 72%.

`Cc1ccsc1C(=C1CCN(C(CO)C(=O)NCc2ccccc2)CC1)c1sccc1C` (centres unmarked) [Compound 54a, N-Benzyl-2-{4-[bis(3-methylthiophen-2-yl)methylidene]piperidin-1-yl}-3-hydroxypropanamide]: the IC50 on mGAT2 is 16.6 µM; at mGAT3, 16.2 µM; on mGAT1 [1], 15.1 µM; at mGAT4, 44.7 µM. On mGAT1 [2], the “remaining NO711 binding mGAT1” value is 100 μM: 86%.

As for `Cc1ccsc1C(=C1CCN(C(CO)C(=O)NCc2ccccc2Cl)CC1)c1sccc1C` (centres unmarked) [Compound 54b, 2-{4-[Bis(3-methylthiophen-2-yl)methylidene]piperidin-1-yl}-N-[(2-chlorophenyl)methyl]-3-hydroxypropanamide], the IC50 at mGAT2 is 43.7 µM; on mGAT3 it was 63.1 µM; on mGAT4, 95.5 µM. For the same compound, the “remaining [3H]GABA uptake mGAT1” value at mGAT1 [1] is listed as 100 μM: 53%. For the same compound, the “remaining NO711 binding mGAT1” value on mGAT1 [2] was 100 μM: 100%.
